Experimental data reported in US20260285860A1, “INHIBITORS OF cGAS AND USES THEREOF” (The Trustees of Columbia University in the City of New York, priority 2023, published 2026).

Tests used:
[1] = tested on: HCC44; test: Treatment of HCC44 with cGAS inhibitor, STING signaling in response to cGAMP stimulation; assay type: cell-based, human; conditions: HCC44 cells
Description: Suppression of CIN or cGAS activity restores immunogenic potential of LKB1-deficient NSCLC. In experiments, relief of tonic STING activation via cGAMP could be removed by genetically deleting cGAS. Treatment of HCC44 with a commercially available human-selective cGAS inhibitor (G150) restored STING protein levels and enhanced pTBK1 and pIRF3 in response to cGAMP stimulation, thus, phenocopying genetic cGAS deletion experiments.

[2] = tested on: KL, 4T1, CT26, B16F10 and E0771.1mb tumors; test: MSA-2 treatment of transplanted wild type or Cgas KO tumors; assay type: in vivo
Description: To test if loss of tumor cell cGAS activity would sensitize otherwise resistant chromosomally unstable tumors to STING agonists, wild type or Cgas KO cells […] biweekly with MSA-2.

[3] = tested on: macrophages; test: Macrophage polarization assays with conditioned media from MSA-2-treated cancer cells; assay type: cell-based
Experimental: (§1) Given mounting evidence on reprograming of macrophages by STING agonists, macrophage polarization assays were carried out. […] Finally, KL, 4T1, and EO771.1mb were inoculated subcutaneously (KL) or orthotopically (4T1 and EO771.1mb) to evaluate the efficacy of RU.521 and MSA-2 combination treatment. Animals were pre-treated with RU.521 to ensure sufficient drug exposure by the time the first MSA-2 dose was administrated and continued RU.521 throughout the treatment course. Animals were treated with MSA-2 when tumors reached ~100 mm3.

[4] = tested on: KL, 4T1, and EO771.1mb tumors; test: RU.521 and MSA-2 combination treatment of KL, 4T1 and EO771.1mb tumors in animals; assay type: in vivo; conditions: KL (subcutaneous), 4T1 and EO771.1mb (orthotopic); agent alone
Experimental: as §1

[5] = Cgas KO tumors, KL, 4T1, CT26, B16F10, MSA-2 biweekly

Compound	STING protein levels [1]	pIRF3 in response to cGAMP stimulation ([1]; cGAMP stimulation)	pTBK1 in response to cGAMP stimulation ([1]; cGAMP stimulation)	survival of treated animals [2, 5]	tumor growth [2, 5]	survival of animals ([2]; E0771.1mb Cgas KO tumors)	tumor growth ([2]; E0771.1mb tumors, both cGAS proficient and deficient)	tumor growth and survival benefit ([2]; wildtype tumors)	Arginase 1 (M2-like marker) in macrophages ([3]; conditioned media from KL, 4T1, CT26 and B16F10 cells treated with MSA-2, with inhibition of cGAS in cancer cells)	iNOS (M1-like marker) in macrophages ([3]; conditioned media from MSA-2-treated Cgas KO cells versus wildtype MSA-2-treated cancer cells)	tumor growth, single agent [4]
Nc1ccc(-c2cc(Cl)c(Cl)c3[nH]c4c(c23)CN(C(=O)CO)CC4)cn1 [G150]	restored	enhanced	enhanced	–	–	–	–	–	–	–	–
COc1cc2cc(C(=O)CCC(=O)O)sc2cc1OC [MSA-2]	–	–	–	extending the survival	significantly slowed the growth	prolonged survival	grew slightly slower	comparatively minimal effect	reductions of Arginase 1	robust increase in iNOS	did not significantly hinder tumor growth
